Results taken from patent publication US20160060234A1, “CYSTEINE DERIVATIVE” (AJINOMOTO CO., INC., priority 2010, published 2016).
Where a name gives a salt, the structure may show the parent alone.

Columns and labels:
B16 melanoma = experiment: Eumelanin production suppression test; type: cell-based; settings: Mus musculus, 72 h, 3 days culture, absorbance of medium at 450 nm, control = 100%, read-out: 50% melanin production suppressing concentration
Method: B16 melanoma was cultured in DMEM (Dulbecco's Modified Eagle Medium) (high glucose, containing 10% serum). Confluent cells were detached with trypsin, and plated on a 96 well plate. After cell adhesion to the plate the next day, the medium was changed to DMEM added with each evaluation sample (control (no sample addition), cysteine derivatives of each Synthetic Example) at a predetermined evaluation concentration (diluted from 10 mM according to sample), and the cells were cultured for 3 days. The 96 well plate was shaken for 5 minutes in a plateshaker, and the absorbance of the medium at 450 nm was measured by a microplatereader. The absorbance after 3 days from the addition of a predetermined concentration of each sample was shown in relative percentage to the measured value (absorbance) of the control (no sample addition) as 100%, and the concentration necessary for suppressing eumelanin production in each sample by 50% was calculated as 50% melanin production suppressing concentration relative to the amount of eumelanin in the control as 100%.
The microplatereader used in this eumelanin production suppression test was Benchmark microplatereader, manufactured by BIORAD.

[1] = Time-course stability test at 70° C. (Experimental Example 1); type: physicochemical; settings: 25 mM phosphate buffer, pH 4, 5, 6 and 7, 70° C., 4 days, HPLC
Method: A time-course stability test was performed using N-Ac-CP2Et obtained in Synthetic Example 1 and N-Ac-CP obtained in Synthetic Example 13 in a 25 mM phosphate buffer at pH 4, 5, 6, and 7 and 70° C. The test was performed for 4 days. As comparison targets, CP obtained in Reference Example 1, and CP2Et obtained in Reference Example 2 were used. For the time-course stability test, HPLC; (pump) HITACHI L-7100, (Autosampler) HITACHI L-2200, and (detector) HITACHI L-4000 were used.
As an index of a time-course stability test at 70° C., the area value of a target substance after time course changes relative to the area value of the target substance on day 0 after start of the stability test was calculated in % on an HPLC chart and used as a residual ratio.
detector: ultraviolet absorption spectrophotometer (measurement wavelength; 210 nm) column: Inertsil ODS (GL Sciences) (particle size 3 μm, inner diameter 4.6 mm, length 250 mm) eluent: 4 mL/L aqueous phosphoric acid solution:methanol=3:1 (v/v) flow rate: 0.8 mL/minute column temperature: 50° C. sample concentration: 100 mg/dL injection volume: 20 μL retention time (minute): CP: 4.6, 4.8 (diastereomer mixture), N-Ac-CP: 8.0 […]

[2] = Time-course stability test at 70° C. of cis form-trans form mixture (Experimental Example 2); type: physicochemical; settings: 5 days; for residual ratio (%) at pH 4: 25 mM phosphate buffer pH 4, 70° C.; for residual ratio (%) at pH 4 / residual ratio (%) at pH 5 / residual ratio (%) at pH 6 / residual ratio (%) at pH 7: HPLC area vs day 0; for preservation stability (in words, from Table 1): 25 mM phosphate buffer pH 4-7, 70° C.; for residual ratio (%) at pH 5: 25 mM phosphate buffer pH 5, 70° C.; for residual ratio (%) at pH 6: 25 mM phosphate buffer pH 6, 70° C.; for residual ratio (%) at pH 7: 25 mM phosphate buffer pH 7, 70° C.
Method: A time-course stability test was performed using about 1:1 mixture (20 mg/20 ml) of cis form-trans form of N-Ac-CP2Et obtained in Synthetic Example 7 in a 25 mM phosphate buffer at pH 4, 5, 6, and 7 and 70° C. in the same manner as in Examples Experimental Example 1. The test was performed for 5 days. As an index of a time-course stability test at 70° C., the area value of a target substance 5 days after start of the stability test relative to the area value of the target substance on day 0 after start of the stability test was calculated in % on an HPLC chart and used as a residual ratio.
Detector: ultraviolet absorption spectrophotometer (measurement wavelength; 210 nm) Column: Inertsil ODS-3 (High Pressure type, GL Sciences) (particle size 3 μm, inner diameter 4.6 mm, length 250 mm) eluent: A: 0.05M KH2PO4 (adjusted to pH2 with 85% H3PO4), B: MeOH gradient conditions: 0-5 minute: A=100, −25 minute: A:B=50:50, −35 minute: A:B=50:50, −40 minute: A=100, −45 minute: A=100 flow rate: 0.8 mL/minute column temperature: 30° C. sample concentration: 25-50 mg/dL injection volume: 20 μL retention time (minute): N-Ac-CP2Et (cis form): 31.9, N-Ac-CP2Et (trans form): 33.9

Structure (SMILES): CC(=O)N1C(C(=O)O)CSC1(C)C(=O)O (centres unmarked) [Synthetic Example 13, N-acetyl-2-methylthiazolidine-2,4-dicarboxylic acid]
- IC50 (B16 melanoma): 5.47 mM
- preservation stability (residual ratio, FIGS. 1 to 4) [1]: preservation stability better than CP and CP2Et

Structure (SMILES): CCOC(=O)C1CSC(C)(C(=O)OCC)N1C(C)=O (centres unmarked) [Synthetic Example 19, N-acetyl-2-methylthiazolidine-2,4-dicarboxylic acid 2,4-diethyl ester]
- IC50 (B16 melanoma): 2.61 mM

Structure (SMILES): CCOC(=O)C1(C)SCC(C(=O)O)N1C(C)=O (centres unmarked) [Synthetic Example 1, N-acetyl-2-methylthiazolidine-2,4-dicarboxylic acid 2-ethyl ester]
- IC50 (B16 melanoma): 4.54 mM
- preservation stability (residual ratio, FIGS. 1 to 4) [1]: preservation stability better than CP and CP2Et

Structure (SMILES): CCOC(=O)C1(C)SCC(C(=O)O)N1C(C)=O (stereo not drawn) [N-Ac-CP2Et (cis form), N-acetyl-2-methylthiazolidine-2,4-dicarboxylic acid 2-ethyl ester]
- residual ratio (%) at pH 4 [2]: 69.9%
- preservation stability (in words, from Table 1) [2]: good preservation stability
- residual ratio (%) at pH 5 [2]: 93.5%
- residual ratio (%) at pH 6 [2]: 96.9%
- residual ratio (%) at pH 7 [2]: >99.9%

Structure (SMILES): CCOC(=O)C1(C)SCC(C(=O)OC(C)C)N1C(C)=O (centres unmarked) [Synthetic Example 20, N-acetyl-2-methylthiazolidine-2,4-dicarboxylic acid 2-ethyl 4-isopropyl ester]
- IC50 (B16 melanoma): 1.42 mM

Structure (SMILES): CCOC(=O)C1(C)SCC(C(=O)O)N1C(C)=O (centres unmarked) (as salt: salt) [Synthetic Example 1, N-acetyl-2-methylthiazolidine-2,4-dicarboxylic acid 2-ethyl ester]
- melting point: 138 to 141 °C

Structure (SMILES): CCOC(=O)C1(C)SCC(C(=O)O)N1C(C)=O (stereo not drawn) [N-Ac-CP2Et (trans form), N-acetyl-2-methylthiazolidine-2,4-dicarboxylic acid 2-ethyl ester]
- residual ratio (%) at pH 4 [2]: 95.8%
- preservation stability (in words, from Table 1) [2]: good preservation stability
- residual ratio (%) at pH 5 [2]: 99.8%
- residual ratio (%) at pH 6 [2]: >99.9%
- residual ratio (%) at pH 7 [2]: >99.9%
